Test results published in patent US11827663B2, “Use of UAP inhibitors to inhibit flux through the hexosamine biosynthetic pathway” (The Johns Hopkins University, priority 2014, dated 2023).
“Also recorded” adds a separate entry of the source.

How the values were obtained:
Type in all cases: cell-based
YAP/TAZ = assay: Western blot of YAP/TAZ
Method: FIGS. 10A and 10B show the western blot results from primary glioblastoma cell lines 612 (FIG. 10A) (these cells were a kind gift of Dr. Quinones-Hinojosa (School of Medicine, Johns Hopkins University), who obtained the cells from cancer patients) and GS1049 (FIG. 10B) that were incubated for 48 h with Ac4Glc2Bz at the indicated concentrations. Each cell line was probed for the proteins Yes Associated Protein (YAP), transcriptional coactivator with PDZ-binding motif (TAZ), phosphorylated Yes Associated Protein (p-YAP), and Glyceraldehyde 3-phosphate dehydrogenase (GAPDH control). […] YAP/TAZ are two key mediators that act to […] the Hippo pathway, which helps to promote oncogenesis, metastasis, and cancer cell survival in circulation. Until now, there were no known small molecule pharmacological agents capable of decreasing YAP/TAZ expression. These studies helped illustrate the extraordinarily powerful potential of UAP1/2 inhibitors as truly disease modifying candidates, especially in cancer.
In addition, in FIG. 22B, YAP western blot results from Ac4Glc2Bz cells were obtained where shRNA knockdown of UAP1 was performed using lentiviral methods in PANC-1 cells (n=3). Similar to above, UAP1 in PANC-1 cells was knocked down using lentiviral vectors followed by 1 week selection using puromycin. […]

c-MYC = assay: Western blot of c-MYC; conditions: SW1990, PANC-1, 612 and GS1049 cells, 125 μM or 250 μM
Method: Proteins from treated cells were obtained by lysing cells in RIPA buffer (SIGMA) supplemented with Protease Inhibitor Cocktail (1:100), Phosphatase Inhibitor Cocktail 2 (SIGMA) (1:100), and Phosphatase Inhibitor Cocktail 3 (SIGMA)(1:100). SDS-PAGE was performed followed by western blotting for c-MYC (Cell Signaling) and β-actin (SIGMA).

[1] = system: N-glycans of SW1990 cells; assay: Mass spectrometry of cell surface N-glycans in SW1990 cells; conditions: 100 μM
Method: FIGS. 18A-18B present mass spectrometry results showing levels of N-glycans (lower molecular weight glycans) and high molecular weight glycans following treatments with Ac4Glc2Bz (100 μM) in SW1990 cells.
(a) Cell surface N-Glycans. After two days of incubation with analog (a length of time sufficient to observe maximal “metabolic glycoengineering” effects (Biotechnol Bioeng 85, 394-405 (2004); Biotechnol Bioeng 109, 992-1006 (2012); Mol Cell Proteomics, 10.1074/mcp.M1112.017558 (2012); Glycobiology 19, 1382-1401 (2009); Nature Protocols 2, 1585-1602 (2007)), cells treated with PNGaseF, N-glycans were collected, and analyzed by following a recently developed protocol that optimizes sialic acid detection and quantification (Anal Chem 85, 3606-3613 (2013)). As previously developed, automated methods were used to analyze mass spectroscopy data to detect phenyl-modified sugars in glycan structures. This analysis was valuable to monitor whether any phenyl-modified analog was biosynthetically processed (instead or in addition to inhibiting UAP) and incorporated into cellular glycans.
For example, as shown in FIGS. 18A-18B, SW1990 cells were treated with Ac4Glc2Bz (100 μM), and the cell extracts were analyzed by mass spectrometry.

[2] = system: O-GlcNAc protein modification; assay: Western blot of O-GlcNAcylation with CTD110.6; conditions: 612, GS1049, SW1990 and PANC-1 cells, 40 μM or 60 μM, 48 h
Method: Exemplary CTD110.6 protein expression results were obtained for 612 cells (FIG. 17A); GS1049 cells (FIG. 17B); SE1990 cells (FIG. 17C); and PANC-1 cells (FIG. 17D) with either 40 μM or 60 μM Ac4Glc2Bz.
For example, as shown in FIG. 17A-17D, Ac4Glc2Bz could change O-GlcNAcylation in a dose-dependent manner in each cell of 612 cells (FIG. 17A); GS1049 (FIG. 17B); SW1990 (FIG. 17C) and PANC-1 (FIG. 17D). In particular, the band intensities of CTD110.6 (anti-O-GlcNAc antibody) from each treated cell decreased as the concentrations of Ac4Glc2Bz treatment were increased. 3×10^5 cells were plated in 6-well plates, with 2 wells per condition tested as indicated in FIG. 17A-D. After 48 h, proteins were collected after freezing for 15 minutes at −80° C. using extraction buffer consisting of 20 mM TrisHCl, pH 7.5, 1% v/v NP-40, 2 mM EDTA, 0.1 mM phenylmethylsulfonyl fluoride, phosphatase inhibitor cocktails 2 and 3 (1×) (SIGMA), ThiametG (10 nM) (Cayman Chemical), β-hexosaminidase inhibitor (5 μM) (Millipore), sodium fluoride (1 mM), and β-glycerophosphate (1 mM). The lysed cells were scraped, collected, and incubated on ice for 20 minutes while vortexing for 5-10 s ever 5 minutes. Samples were sonicated for 5 seconds and then centrifuged at 14,000 RPM for 20 minutes at 4° C. The supernatant was removed, normalized to 1 mg/mL, and 20 μg was loaded onto a 7.5% SDS-PAGE gel. […]

global DNA methylation = assay: Global DNA methylation assay in SW1990 cells
Method: In 6-well plates, SW1990 cells were seeded (3×10^5) and were treated with Ac4Glc2Bz at the indicated concentrations. DNA from treated cells was isolated using a FitAmp Blood and Cultured Cell DNA Extraction Kit (Epigentek) followed by colormetric determination of global methylation using a MethylFlash™ Methylated DNA Quantification Kit (Epigentek). […] For instance, by reducing flux through the HBP, UAP inhibitors could exert epigenetic effects, as global DNA methylation was increased as shown in FIG. 23. Although hypermethylation of promoter sites of tumor suppressors might be common in cancer at a global scale, cancer cells are almost always characterized by hypomethylation, which the current UAP inhibitors appeared to be reversing (Epigenomics. 2009 December; 1(2): 239-259; Oncogene. 12 Aug. 2002, Volume 21, Number 35, Pages 5400-5413).

Q: With `CC(=O)OCC1OC(OC(C)=O)[C@@H](NC(=O)c2ccccc2)[C@@H](OC(C)=O)[C@@H]1OC(C)=O` (stereo partly shown) [Ac4Glc2Bz] as the molecule, how does the “protein expression of YAP/GAPDH” value (YAP/TAZ; as described in Example 5) read?
A: reduce protein expression of YAP/GAPDH in a dose-dependent manner

Q: What about the “protein expression of YAP/TAZ” value (YAP/TAZ; primary glioblastoma cell lines 612 and GS1049, 48 h) of the same molecule?
A: virtually abolished

Q: And the c-MYC expression (c-MYC)?
A: reduce c-MYC expression in a dose-dependent manner; also recorded: altered

Q: And the “amplitude of peaks for N-glycans (lower molecular weight glycans)” value [1]?
A: not significantly reduced

Q: What about the “peaks for high molecular weight glycans” value [1] of the same molecule?
A: quantitative changes were identified

Q: What about the “O-GlcNAcylation, band intensities of CTD110.6” value [2] of the same molecule?
A: decreased; also recorded: changed

Q: And the “global DNA methylation” value (global DNA methylation)?
A: promote global DNA methylation at higher doses
